Results as given in publication PMC9403976, “Elucidating the path to Plasmodium prolyl-tRNA synthetase inhibitors that overcome halofuginone resistance” (Nature Communications, 2022).
Where “and” joins values, the source holds several entries; their conditions need not be identical. Equal entries are not always repeated. Where two headings read alike, the source gives them in different places.

Assays:
[1] = system: halofuginone-induced P. falciparum (elevated proline homeostasis); experiment: P. falciparum ABS growth assay, SYBR Green, 72 h, halofuginone-induced parasites; assay type: cell-based, Plasmodium falciparum; conditions: Halofuginone-Induced (HFG-Induced)
Procedure, shortened: (§1)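 SYBR Green 1 fluorescence after 72 h quantified growth of erythrocytic-stage Dd2 lines seeded at 1% parasitemia and 1% hematocrit. Compounds were tested in triplicate dose-response format in RPMI with 0.5% Albumax, referenced to 10 μM dihydroartemisinin and untreated wells.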

[2] = system: HFGR-I P. falciparum (elevated proline homeostasis and PfcProRS^L482H); experiment: P. falciparum ABS growth assay, SYBR Green, 72 h, HFGR-I parasites; assay type: cell-based, Plasmodium falciparum; conditions: HFGR-I
Procedure, shortened: as §1

HsProRS = HsProRS (Homo sapiens, UniProt P07814); experiment: TR-FRET ligand displacement assay with tracer MAT379 (CoraFluor-1-Halo and anti-His6 antibody formats); assay type: binding; parameters: made in house; host or cells: E. coli SoluBL-21; conditions: for TR-FRET dose-response, normalized signal (SI Fig 11): individual replicates
P. falciparum Dd2-2D4 = experiment: P. falciparum asexual blood stage (ABS) growth assay, SYBR Green, 72 h, wild-type parasites; assay type: cell-based, Plasmodium falciparum; conditions: for ABS growth dose-response, normalized signal (Replicates 1-3): Dd2-2D4
Experimental: Parasites were maintained under standard culture conditions as described previously[56],[57]. […] The P. falciparum Dd2 cell lines used in this study (Dd2-2D4, halofuginone-induced, and HFGR-I) have previously undergone whole genome sequencing in our labs.
This assay was performed as previously described[8]. In short, P. falciparum erythrocytic-stage parasites at 1% parasitemia and 1% hematocrit in RPMI + 0.5% Albumax were seeded at 40 μL/well in 384-well plates with test compounds in triplicate, dose-response format with 10 μM dihydroartemisinin as a kill-control and blank (no compound) wells as a growth-control. […] After 72 h, growth was quantified by measuring fluorescence (Molecular Devices SpectraMax iD5) following SYBR Green 1 staining. Data were analyzed in Excel and plotted in PRISM (V. 8.4.3–9.1.0, GraphPad).

PfcProRS = target: T1, PfcProRS (Plasmodium falciparum, UniProt Q8I5R7); assay type: binding; conditions: for dose-response signal (normalized), SI Fig 8: single replicates
T1 construct: made in house; host or cells: E. coli SoluBL-21
T1 sequence (Q8I5R7 249-746): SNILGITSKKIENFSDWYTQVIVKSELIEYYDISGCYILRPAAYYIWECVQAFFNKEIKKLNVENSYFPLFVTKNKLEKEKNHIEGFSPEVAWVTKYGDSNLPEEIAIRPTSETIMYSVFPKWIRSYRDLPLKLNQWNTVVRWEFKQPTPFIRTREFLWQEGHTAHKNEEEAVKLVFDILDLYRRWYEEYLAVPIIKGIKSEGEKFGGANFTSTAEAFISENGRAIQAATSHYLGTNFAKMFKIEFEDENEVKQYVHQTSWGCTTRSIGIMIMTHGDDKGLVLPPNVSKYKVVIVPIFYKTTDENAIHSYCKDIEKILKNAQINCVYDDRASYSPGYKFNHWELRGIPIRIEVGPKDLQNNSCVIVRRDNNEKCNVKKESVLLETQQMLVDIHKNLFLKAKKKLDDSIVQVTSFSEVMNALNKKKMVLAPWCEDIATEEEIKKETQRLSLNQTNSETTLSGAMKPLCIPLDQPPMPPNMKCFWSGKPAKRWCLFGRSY

Chain of HsProRS (P07814 996-1512): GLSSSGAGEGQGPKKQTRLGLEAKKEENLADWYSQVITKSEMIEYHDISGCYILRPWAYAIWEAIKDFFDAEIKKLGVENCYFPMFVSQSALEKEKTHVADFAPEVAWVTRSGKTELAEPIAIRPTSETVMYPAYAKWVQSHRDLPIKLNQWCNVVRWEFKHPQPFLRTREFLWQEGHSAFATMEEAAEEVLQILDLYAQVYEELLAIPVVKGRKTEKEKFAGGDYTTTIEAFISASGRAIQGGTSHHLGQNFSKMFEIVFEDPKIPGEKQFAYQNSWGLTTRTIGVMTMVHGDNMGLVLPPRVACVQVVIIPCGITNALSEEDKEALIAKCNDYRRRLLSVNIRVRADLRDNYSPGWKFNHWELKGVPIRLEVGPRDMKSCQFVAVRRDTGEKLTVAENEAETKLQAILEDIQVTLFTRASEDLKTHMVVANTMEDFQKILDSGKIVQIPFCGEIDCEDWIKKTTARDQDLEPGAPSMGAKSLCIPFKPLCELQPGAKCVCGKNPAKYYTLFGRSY

## CC(C)(C)OC(=O)NC1CCN(C(=O)Nc2nccnc2C(=O)NC2Cc3ccccc3C2)CC1 [compound 7]
[1]; Log[inhibitor] (M) -5.000
  ABS growth dose-response, normalized signal (Replicates 1-3): 8 and 7 and 3
[1]; Log[inhibitor] (M) -5.301
  ABS growth dose-response, normalized signal (Replicates 1-3): 22 and 9 and 15
[1]; Log[inhibitor] (M) -5.602
  ABS growth dose-response, normalized signal (Replicates 1-3): 34 and 37 and 32
[1]; Log[inhibitor] (M) -5.903
  ABS growth dose-response, normalized signal (Replicates 1-3): 93 and 89 and 84
[1]; Log[inhibitor] (M) -6.204
  ABS growth dose-response, normalized signal (Replicates 1-3): 92 and 98 and 96
[1]; Log[inhibitor] (M) -6.505
  ABS growth dose-response, normalized signal (Replicates 1-3): 98 and 96 and 105
[1]; Log[inhibitor] (M) -6.806
  ABS growth dose-response, normalized signal (Replicates 1-3): 103 (2×) and 107
[1]; Log[inhibitor] (M) -7.107
  ABS growth dose-response, normalized signal (Replicates 1-3): 109 (2×) and 104
[1]; Log[inhibitor] (M) -7.408
  ABS growth dose-response, normalized signal (Replicates 1-3): 106 and 107 and 102
[1]; Log[inhibitor] (M) -7.709
  ABS growth dose-response, normalized signal (Replicates 1-3): 107 and 106 and 101
[1]; Log[inhibitor] (M) -8.010
  ABS growth dose-response, normalized signal (Replicates 1-3): 100 and 99 and 106
[1]; Log[inhibitor] (M) -8.311
  ABS growth dose-response, normalized signal (Replicates 1-3): 109 and 100 and 99
[2]; Log[inhibitor] (M) -5.000
  ABS growth dose-response, normalized signal (Replicates 1-3): 7 (2×) and 6
[2]; Log[inhibitor] (M) -5.301
  ABS growth dose-response, normalized signal (Replicates 1-3): 18 and 21 and 24
[2]; Log[inhibitor] (M) -5.602
  ABS growth dose-response, normalized signal (Replicates 1-3): 51 and 50 and 48
[2]; Log[inhibitor] (M) -5.903
  ABS growth dose-response, normalized signal (Replicates 1-3): 103 and 100 and 102
[2]; Log[inhibitor] (M) -6.204
  ABS growth dose-response, normalized signal (Replicates 1-3): 99 and 103 and 101
[2]; Log[inhibitor] (M) -6.505
  ABS growth dose-response, normalized signal (Replicates 1-3): 106 and 103 and 101
[2]; Log[inhibitor] (M) -6.806
  ABS growth dose-response, normalized signal (Replicates 1-3): 100 and 103 and 108
[2]; Log[inhibitor] (M) -7.107
  ABS growth dose-response, normalized signal (Replicates 1-3): 110 and 105 and 104
[2]; Log[inhibitor] (M) -7.408
  ABS growth dose-response, normalized signal (Replicates 1-3): 103 and 110 and 105
[2]; Log[inhibitor] (M) -7.709
  ABS growth dose-response, normalized signal (Replicates 1-3): 107 and 102 and 105
[2]; Log[inhibitor] (M) -8.010
  ABS growth dose-response, normalized signal (Replicates 1-3): 102 and 103 and 101
[2]; Log[inhibitor] (M) -8.311
  ABS growth dose-response, normalized signal (Replicates 1-3): 104 (2×) and 102
HsProRS; HsProRS (KD [nM]) + proline, 100 μM proline, 250 nM MAT379
  Kd: 34.8 nM
HsProRS; HsProRS - best Kd, SI Fig 16a, values on -log scale
  Kd: 22.1 nM
HsProRS; Log[inhibitor] (M) -5.000
  normalized TR-FRET ligand displacement signal, dose-response replicates (SI Fig 6): -1.10E-01 and -3.98E-02 and -5.51E-02
  TR-FRET dose-response, normalized signal (SI Fig 11): 5.88E-02 and 4.63E-03 and 1.20E-02
HsProRS; Log[inhibitor] (M) -5.301
  normalized TR-FRET ligand displacement signal, dose-response replicates (SI Fig 6): -3.29E-02 and -2.98E-02 and -2.55E-02
  TR-FRET dose-response, normalized signal (SI Fig 11): 8.22E-04 and 1.04E-02 and 2.94E-02
HsProRS; Log[inhibitor] (M) -5.601
  normalized TR-FRET ligand displacement signal, dose-response replicates (SI Fig 6): -4.70E-04 and 4.94E-02 and -1.17E-02
  TR-FRET dose-response, normalized signal (SI Fig 11): 2.44E-02 and 7.65E-03 and 4.65E-02
HsProRS; Log[inhibitor] (M) -5.904
  normalized TR-FRET ligand displacement signal, dose-response replicates (SI Fig 6): -2.26E-02 and 7.29E-03 and -6.02E-02
  TR-FRET dose-response, normalized signal (SI Fig 11): 5.49E-02 and 5.79E-02 and 5.68E-02
HsProRS; Log[inhibitor] (M) -6.208
  normalized TR-FRET ligand displacement signal, dose-response replicates (SI Fig 6): 5.82E-02 and 7.95E-02 and 2.06E-02
  TR-FRET dose-response, normalized signal (SI Fig 11): 4.71E-02 and 4.91E-02 and 7.38E-02
HsProRS; Log[inhibitor] (M) -6.509
  normalized TR-FRET ligand displacement signal, dose-response replicates (SI Fig 6): 1.24E-02 and 1.36E-01 and 1.19E-01
  TR-FRET dose-response, normalized signal (SI Fig 11): 1.27E-01 and 1.07E-01 and 8.54E-02
HsProRS; Log[inhibitor] (M) -6.796
  normalized TR-FRET ligand displacement signal, dose-response replicates (SI Fig 6): 2.14E-01 and 2.70E-01 and 2.50E-01
  TR-FRET dose-response, normalized signal (SI Fig 11): 1.74E-01 and 1.79E-01 and 1.50E-01
HsProRS; Log[inhibitor] (M) -7.108
  normalized TR-FRET ligand displacement signal, dose-response replicates (SI Fig 6): 3.41E-01 and 3.62E-01 and 3.83E-01
  TR-FRET dose-response, normalized signal (SI Fig 11): 2.66E-01 and 2.89E-01 and 3.00E-01
HsProRS; Log[inhibitor] (M) -7.409
  normalized TR-FRET ligand displacement signal, dose-response replicates (SI Fig 6): 5.14E-01 and 5.24E-01 and 5.91E-01
  TR-FRET dose-response, normalized signal (SI Fig 11): 4.26E-01 and 3.87E-01 and 4.16E-01
HsProRS; Log[inhibitor] (M) -7.710
  normalized TR-FRET ligand displacement signal, dose-response replicates (SI Fig 6): 7.15E-01 and 7.22E-01 and 6.26E-01
  TR-FRET dose-response, normalized signal (SI Fig 11): 5.82E-01 and 5.49E-01 and 5.55E-01
HsProRS; Log[inhibitor] (M) -8.000
  normalized TR-FRET ligand displacement signal, dose-response replicates (SI Fig 6): 9.10E-01 and 9.20E-01 and 8.83E-01
  TR-FRET dose-response, normalized signal (SI Fig 11): 7.19E-01 and 6.97E-01 and 7.02E-01
HsProRS; Log[inhibitor] (M) -8.301
  normalized TR-FRET ligand displacement signal, dose-response replicates (SI Fig 6): 9.29E-01 and 8.45E-01 and 8.62E-01
  TR-FRET dose-response, normalized signal (SI Fig 11): 8.41E-01 and 8.30E-01 and 7.96E-01
HsProRS; Log[inhibitor] (M) -8.602
  normalized TR-FRET ligand displacement signal, dose-response replicates (SI Fig 6): 1.00E+00 and 9.03E-01 and 8.98E-01
  TR-FRET dose-response, normalized signal (SI Fig 11): 8.68E-01 and 8.38E-01 and 8.61E-01
HsProRS; Log[inhibitor] (M) -9.000
  normalized TR-FRET ligand displacement signal, dose-response replicates (SI Fig 6): 9.68E-01 and 8.42E-01 and 9.66E-01
  TR-FRET dose-response, normalized signal (SI Fig 11): 9.12E-01 and 9.38E-01 and 9.42E-01
HsProRS; Log[inhibitor] (M) -9.301
  normalized TR-FRET ligand displacement signal, dose-response replicates (SI Fig 6): 9.89E-01 and 9.63E-01 and 1.01E+00
  TR-FRET dose-response, normalized signal (SI Fig 11): 9.41E-01 and 9.42E-01 and 9.34E-01
P. falciparum Dd2-2D4; Log[inhibitor] (M) -5.000
  ABS growth dose-response, normalized signal (Replicates 1-3): 1
P. falciparum Dd2-2D4; Log[inhibitor] (M) -5.301
  ABS growth dose-response, normalized signal (Replicates 1-3): 1
P. falciparum Dd2-2D4; Log[inhibitor] (M) -5.602
  ABS growth dose-response, normalized signal (Replicates 1-3): 1
P. falciparum Dd2-2D4; Log[inhibitor] (M) -5.903
  ABS growth dose-response, normalized signal (Replicates 1-3): 1
P. falciparum Dd2-2D4; Log[inhibitor] (M) -6.505
  ABS growth dose-response, normalized signal (Replicates 1-3): 1
P. falciparum Dd2-2D4; Plasmodium falciparum, DD2, SI Fig 16b, values on -log scale, read-out: ABS - Dd2-2D4 (converted)
  EC50: 0.0906 µM
PfcProRS; Log[inhibitor] (M) -5.000
  dose-response signal (normalized), SI Fig 8: 9.23E-03 and -2.50E-03 and -6.65E-02
PfcProRS; Log[inhibitor] (M) -5.301
  dose-response signal (normalized), SI Fig 8: -5.43E-02 and 1.65E-02 and -1.76E-02
PfcProRS; Log[inhibitor] (M) -5.601
  dose-response signal (normalized), SI Fig 8: 6.03E-02 and 2.26E-02 and 5.28E-02
PfcProRS; Log[inhibitor] (M) -5.904
  dose-response signal (normalized), SI Fig 8: 2.65E-02 and 5.41E-02 and 9.36E-02
PfcProRS; Log[inhibitor] (M) -6.208
  dose-response signal (normalized), SI Fig 8: 2.38E-02 and 1.39E-01 and 9.30E-02
PfcProRS; Log[inhibitor] (M) -6.509
  dose-response signal (normalized), SI Fig 8: 2.08E-01 and 1.27E-01 and 1.08E-01
PfcProRS; Log[inhibitor] (M) -6.796
  dose-response signal (normalized), SI Fig 8: 2.54E-01 and 2.41E-01 and 3.20E-01
PfcProRS; Log[inhibitor] (M) -7.108
  dose-response signal (normalized), SI Fig 8: 4.18E-01 and 3.78E-01 and 4.14E-01
PfcProRS; Log[inhibitor] (M) -7.409
  dose-response signal (normalized), SI Fig 8: 5.88E-01 and 6.84E-01 and 5.75E-01
PfcProRS; Log[inhibitor] (M) -7.710
  dose-response signal (normalized), SI Fig 8: 7.68E-01 and 7.32E-01 and 7.90E-01
PfcProRS; Log[inhibitor] (M) -8.000
  dose-response signal (normalized), SI Fig 8: 9.75E-01 and 1.04E+00 and 8.35E-01
PfcProRS; Log[inhibitor] (M) -8.301
  dose-response signal (normalized), SI Fig 8: 9.24E-01 and 9.28E-01 and 8.42E-01
PfcProRS; Log[inhibitor] (M) -8.602
  dose-response signal (normalized), SI Fig 8: 1.04E+00 and 8.85E-01 and 9.51E-01
PfcProRS; Log[inhibitor] (M) -9.000
  dose-response signal (normalized), SI Fig 8: 1.00E+00 and 1.08E+00 and 9.49E-01
PfcProRS; Log[inhibitor] (M) -9.301
  dose-response signal (normalized), SI Fig 8: 9.78E-01 and 9.98E-01 and 9.79E-01
PfcProRS; SI Fig 16a, values on -log scale
  PfcProRS -- best Kd: 7.883
PfcProRS; read-out: PfcProRS (KD [nM]) + proline
  Kd: 13.2 nM
